Measurements taken from paper PMC11984419, “Differential senolytic inhibition of normal versus Aβ-associated cholinesterases: implications in aging and Alzheimer’s disease” (Aging (Albany NY), 2025).
Where a name gives a salt, the structure may show the parent alone. Read-outs that look alike come from different tables or passages of the source.

Assays:
[1] = molecular target: T1, AChE associated with normal neural elements (Homo sapiens, UniProt P22303); test: Karnovsky-Roots histochemical staining, AChE associated with normal neural elements (pH 8.0); format: biochemical; settings: for Inhibition of staining, AChE pH 8.0: normal neural elements, AD thalamus, average ranking of four AD cases, compound 0.25-1.3 mM in KR solution; for Inhibition of AChE staining associated with normal neural elements (in words): pH 8.0, relative to controls
T1 construct: post-mortem brain tissues from sex- and age-matched AD cases; tissue Maritime Brain Tissue Bank, Dalhousie University; host or cells: post-mortem human AD brain: orbitofrontal cortex (plaques, pH 6.8) and thalamus (normal neural elements, pH 8.0)
T1 sequence (P22303 32-614): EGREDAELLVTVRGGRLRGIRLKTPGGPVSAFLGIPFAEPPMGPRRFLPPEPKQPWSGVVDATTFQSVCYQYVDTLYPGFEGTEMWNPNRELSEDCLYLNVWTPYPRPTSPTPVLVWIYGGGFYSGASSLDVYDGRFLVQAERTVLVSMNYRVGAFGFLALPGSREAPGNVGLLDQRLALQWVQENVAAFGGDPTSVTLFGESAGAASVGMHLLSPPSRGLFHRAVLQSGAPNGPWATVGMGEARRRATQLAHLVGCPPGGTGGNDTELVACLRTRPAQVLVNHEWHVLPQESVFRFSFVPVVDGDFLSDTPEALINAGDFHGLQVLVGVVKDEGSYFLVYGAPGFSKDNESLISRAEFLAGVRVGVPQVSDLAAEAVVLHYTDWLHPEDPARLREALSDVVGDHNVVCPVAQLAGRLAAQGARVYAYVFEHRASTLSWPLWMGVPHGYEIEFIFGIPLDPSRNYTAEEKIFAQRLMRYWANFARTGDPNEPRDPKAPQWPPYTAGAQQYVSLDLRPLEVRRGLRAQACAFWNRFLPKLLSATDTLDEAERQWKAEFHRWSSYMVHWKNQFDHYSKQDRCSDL
Procedure: (§1) Histochemical staining for AChE and BChE activity in brain tissues was done using a modified Karnovsky-Roots (KR) method. Tissue sections were first rinsed for 30 min in 0.1 M PB, followed by 30 min in 0.1 M PB with […] hydrogen peroxide (H2O2) and then rinsed for 30 min with 0.1 M maleate buffer (MB; pH 6.8 or […]) prior to incubation in the KR solution. Sections stained for AChE were incubated in the KR solution for 1.75 hr, while sections stained for BChE were incubated for 2.5 hr. The KR staining solution contained 0.5 mM sodium citrate, 0.47 mM cupric sulfate, and 0.05 mM of potassium ferricyanide, a thioester ChE substrate and ChE inhibitor in MB at pH 6.8 to stain for ChEs associated with AD pathology or pH 8.0 to stain for ChEs associated with normal neural elements. For AChE staining, ATChI (0.4 mM) was used as the substrate and ethopropazine (0.06 mM) was used to inhibit BChE. For BChE staining, BTChI (0.8 mM) was used as the substrate and BW 284c51 (0.01 mM) was used to inhibit AChE. Following incubation in KR, sections were rinsed in distilled water (dH2O) for 30 min, incubated in a 0.1% cobalt chloride solution in dH2O for 10 min, and rinsed again in dH20 for 30 min. Sections were incubated in 1.39 mM 3,3’-diaminobenzidine tetrahydrochloride (DAB) in PB (pH 7.4) for 5 min and then developed using 50 μL of 0.3% H2O2 per mL of DAB solution. The reaction was stopped by a 30 min rinse in 0.01 M acetate buffer (pH 3.3). Stained sections were mounted on glass slides, cover-slipped and examined with brightfield microscopy.
(§2) To evaluate the interactions of senolytic and nootropic compounds with ChEs in brain tissues, the above histochemical technique was used with minor variations to the KR incubation. Senolytic and nootropic compounds were dissolved in 50% aqueous acetonitrile to make a stock solution. […] Following incubation for AChE (1.75 hr) and BChE (2.5 hr) in the KR solution, staining was completed as described above.
(§3) Positive controls included staining for BChE and AChE activity at pH 6.8 and pH 8.0 without any additions. Negative controls were utilized to validate staining specificity of BChE and AChE at pH 6.8 and pH 8.0, where the substrates (BTChI and ATChI, respectively) were omitted, as previously described. […] Briefly, 50% aqueous acetonitrile was added to the KR solution, without any senolytic or nootropic compound, while maintaining the same volume as the compound additives.
(§4) A qualitative method was used to evaluate the effect of senolytic and nootropic compounds on ChE histochemical staining, as done previously. Inhibition of staining intensity was categorized as follows: No reduction (-), slight (x), moderate (xx), or strong (xxx). Tissue sections were analyzed using brightfield microscopy on an Olympus BX50F microscope (Olympus Optical Co., Ltd., Tokyo, Japan). Photomicrographs of the stained tissue sections were taken using a Zeiss Axio Scan.Z1 slide scanner with Zen 3.1 Blue Edition software (Carl Zeiss Canada Ltd., Toronto, Ontario, Canada). Figures were assembled using Adobe Photoshop (CS 5, Version 12.0, San Diego, CA, USA). The brightness of each individual image was adjusted to ensure backgrounds matched for analysis.

[2] = molecular target: T2, BChE associated with normal neural elements (Homo sapiens, UniProt P06276); test: Karnovsky-Roots histochemical staining, BChE associated with normal neural elements (pH 8.0); format: biochemical; settings: for Inhibition of staining, BChE pH 8.0: normal neural elements, AD thalamus, average ranking of four AD cases, compound 0.25-1.3 mM in KR solution; for Inhibition of BChE staining associated with normal neural elements (in words): pH 8.0, relative to controls
T2 construct: post-mortem brain tissues from sex- and age-matched AD cases; tissue Maritime Brain Tissue Bank, Dalhousie University; host or cells: post-mortem human AD brain: orbitofrontal cortex (plaques, pH 6.8) and thalamus (normal neural elements, pH 8.0)
T2 sequence (P06276 29-602): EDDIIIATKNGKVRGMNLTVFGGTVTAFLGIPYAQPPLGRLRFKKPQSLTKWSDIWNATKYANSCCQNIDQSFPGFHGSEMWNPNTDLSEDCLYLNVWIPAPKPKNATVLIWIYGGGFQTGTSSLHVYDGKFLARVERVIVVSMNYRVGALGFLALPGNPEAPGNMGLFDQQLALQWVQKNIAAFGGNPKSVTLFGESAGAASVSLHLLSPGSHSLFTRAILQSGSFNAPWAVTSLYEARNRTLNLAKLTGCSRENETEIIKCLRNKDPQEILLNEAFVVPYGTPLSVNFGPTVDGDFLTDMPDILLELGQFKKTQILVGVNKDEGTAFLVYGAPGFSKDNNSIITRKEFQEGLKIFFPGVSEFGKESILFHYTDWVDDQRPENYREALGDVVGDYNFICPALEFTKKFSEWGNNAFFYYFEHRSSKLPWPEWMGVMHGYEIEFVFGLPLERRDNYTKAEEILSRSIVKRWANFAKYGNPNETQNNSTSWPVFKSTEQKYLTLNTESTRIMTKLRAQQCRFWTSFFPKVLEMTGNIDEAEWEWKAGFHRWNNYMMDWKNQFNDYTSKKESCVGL
Procedure: as §1, §2, §3, §4

[3] = molecular target: T3, BChE purified from human plasma (Homo sapiens, UniProt P06276); test: Enzyme kinetic study (Ellman's assay, Lineweaver-Burk) with BChE; format: biochemical; settings: for BChE mode of inhibition: from Lineweaver-Burk plots
T3 construct: BChE purified from human plasma was a gift from Dr. Oksana Lockridge; tissue gift from Dr. Oksana Lockridge (Eppley Institute, University of Nebraska Medical Center); host or cells: human plasma
T3 sequence (P06276 29-602): as above
Procedure: (§5) Enzyme kinetic studies were performed as previously described, using Ellman’s assay. Briefly, in a quartz cuvette (1 cm pathlength), a 0.577 mM DTNB solution in 0.1 M potassium phosphate buffer (1.6 mL, pH 7.0) was combined at room temperature with either recombinant AChE (0.1 mL, 3.7 nM) in 0.005% aqueous gelatin or purified human serum BChE (0.1 mL, 5.85 nM) in 0.005% aqueous gelatin and mixed with a senolytic or nootropic compound (Figure 1) dissolved in 50% (v/v) aqueous acetonitrile (0.05 mL). […] Substrate concentrations were kept constant while the senolytic concentrations varied (0-140 μM). Changes in absorbance (ΔA/min), reflecting the rate of ATChI or BTChI hydrolysis with their respective enzymes, were recorded spectrophotometrically every 5 seconds for 1 minute.
(§6) As done previously, Lineweaver-Burk plots were generated for each senolytic and nootropic compound with the velocity (v) of each reaction determined using Beer’s Law, where v = (ΔA/min)/(εl), ε is the molar extinction coefficient for 5-thio-2-nitrobenzoic acid (TNB) (13600 M^−1 cm^−1), and l is the cuvette pathlength (1 cm). Replotting the calculated slopes from each double reciprocal plot against senolytic and nootropic concentrations, gave the inhibitor constant (Ki, M) as the x-intercept. The mode of inhibition (competitive, non-competitive, mixed non-competitive, or uncompetitive) was also determined by analyzing the relational pattern of linear regressions for varying concentrations of the same senolytic or nootropic compound. Enzyme kinetic experiments were performed in triplicate and kinetic parameter values were averaged.

[4] = molecular target: T4, BChE associated with β-amyloid plaques (Homo sapiens, UniProt P06276); test: Karnovsky-Roots histochemical staining, BChE associated with plaques (pH 6.8); format: biochemical; settings: for Inhibition of BChE staining associated with plaques (in words): pH 6.8, compared with control staining; for Inhibition of staining, BChE pH 6.8: plaques, AD orbitofrontal cortex, average ranking of four AD cases, compound 0.25-1.3 mM in KR solution
T4 construct: post-mortem brain tissues from sex- and age-matched AD cases; tissue Maritime Brain Tissue Bank, Dalhousie University; host or cells: post-mortem human AD brain: orbitofrontal cortex (plaques, pH 6.8) and thalamus (normal neural elements, pH 8.0)
T4 sequence (P06276 29-602): as above
Procedure: as §1, §2, §3, §4

[5] = molecular target: T5, AChE associated with β-amyloid plaques (Homo sapiens, UniProt P22303); test: Karnovsky-Roots histochemical staining, AChE associated with plaques (pH 6.8); format: biochemical; settings: for Inhibition of AChE staining associated with plaques (in words): pH 6.8, compared with control staining; for Inhibition of staining, AChE pH 6.8: plaques, AD orbitofrontal cortex, average ranking of four AD cases, compound 0.25-1.3 mM in KR solution
T5 construct: post-mortem brain tissues from sex- and age-matched AD cases; tissue Maritime Brain Tissue Bank, Dalhousie University; host or cells: post-mortem human AD brain: orbitofrontal cortex (plaques, pH 6.8) and thalamus (normal neural elements, pH 8.0)
T5 sequence (P22303 32-614): as the sequence (P22303 32-614) above
Procedure: as §1, §2, §3, §4

recombinant human AChE = molecular target: T6, recombinant human AChE (Homo sapiens, UniProt P22303); test: Enzyme kinetic study (Ellman's assay, Lineweaver-Burk) with AChE; format: biochemical; settings: for AChE mode of inhibition: from Lineweaver-Burk plots
T6 construct: purchased MilliporeSigma Canada Ltd. (Oakville, Ontario, Canada)
T6 sequence (P22303 32-614): as above
Procedure: as §5, §6

BChE = settings: read-out: Literature BChE Ki values, cited from earlier work
AChE = settings: ref Katalinić et al. [60]; read-out: Literature AChE Ki values; cited from earlier work
[6] = system: ChE associated with normal neural elements; settings: ref [37]; cited from earlier work
[7] = system: ChE associated with plaques; settings: ref [37]; cited from earlier work
[8] = purified human serum BChE, BTChI substrate, pH 7.0, triplicate

Compound | Inhibition of staining, AChE pH 8.0 [1] | Inhibition of AChE staining associated with normal neural elements (in words) [1] | Inhibition of staining, BChE pH 8.0 [2] | Inhibition of BChE staining associated with normal neural elements (in words) [2] | BChE mode of inhibition [3] | Inhibition of BChE staining associated with plaques (in words) [4] | Inhibition of staining, BChE pH 6.8 [4] | Inhibition of AChE staining associated with plaques (in words) [5] | Inhibition of staining, AChE pH 6.8 [5] | Ki (recombinant human AChE) [µM] | AChE mode of inhibition (recombinant human AChE) | further results
Cc1nc(Nc2ncc(C(=O)Nc3c(C)cccc3Cl)s2)cc(N2CCN(CCO)CC2)n1 [Dasatinib (1), dasatinib] | - (– (no inhibition)) | no inhibition | - (– (no inhibition)) | no inhibition | (Mixed Non-competitive) | complete inhibition | xxx (xxx (strong inhibition)) | reduced by varying degrees | xx/x^a | 28.2 | (Mixed Non-competitive) | –
O=c1c(O)c(-c2ccc(O)c(O)c2)oc2cc(O)cc(O)c12 [Quercetin (4), quercetin] | – | – | – | – | (Mixed Non-competitive) | – | – | – | – | 62.2 | (Mixed Non-competitive) | Ki (BChE; ref Katalinić et al. [60]): 68 µM; Ki (BChE; ref Orhan et al. [87]): 46.8 µM
O=c1c(O)c(-c2ccc(O)c(O)c2)oc2cc(O)ccc12 [Fisetin (3), fisetin] | – | – | – | – | uncompetitive inhibition | – | – | – | – | – | competitive inhibition | Ki (AChE): 100 µM; Ki ([3]; purified human serum BChE, BTChI substrate, pH 7.0, triplicate, read-out: Experimental BChE Ki): 94.4 µM; Ki (BChE; ref Katalinić et al. [60]): 94.2 µM; Ki (recombinant human AChE; recombinant human AChE, ATChI substrate, pH 7.0, triplicate, read-out: Experimental AChE Ki): 110 µM
COC(=O)c1ccc2c(c1)NC(=O)/C2=C(\Nc1ccc(N(C)C(=O)CN2CCN(C)CC2)cc1)c1ccccc1 [Nintedanib (2), nintedanib] | - (– (no inhibition)) | no inhibition | - (– (no inhibition)) | no inhibition | – | complete inhibition | xxx (xxx (strong inhibition)) | complete inhibition | xxx (xxx (strong inhibition)) | 7.1 | (Mixed Non-competitive) | Experimental BChE Ki [3, 8]: No Inhibition; Experimental BChE Ki ([3]; purified human serum BChE, BTChI substrate, pH 7.0, triplicate, listed as 2): did not inhibit
CN(C)CCOC(=O)COc1ccc(Cl)cc1 [Meclofenoxate Hydrochloride (6), meclofenoxate hydrochloride] | - (– (no inhibition)) | did not inhibit | - (– (no inhibition)) | did not inhibit | (Mixed Non-competitive) | slight inhibition | – | moderate to strong inhibition | – | 63.2 | (Mixed Non-competitive) | –
COc1ccc2c3c1O[C@H]1C[C@@H](O)C=C[C@@]31CCN(C)C2 [galantamine] | – | – | – | – | – | – | – | – | – | – | – | Inhibition of ChE staining associated with normal neural elements [6]: inhibits; Inhibition of ChE staining associated with plaques [7]: inhibits
COc1ccc(COc2ccc(Cc3cnc(N)nc3N)cc2OC)cc1 [GW2580 (5), GW2580] | - (– (no inhibition)) | did not inhibit | - (– (no inhibition)) | did not inhibit | – | did inhibit | x/xx | did not inhibit | - (– (no inhibition)) | 71 | (Mixed Non-competitive) | Experimental BChE Ki [3, 8]: No Inhibition; Experimental BChE Ki ([3]; purified human serum BChE, BTChI substrate, pH 7.0, triplicate, listed as 5): did not inhibit
